From paper PMC2779488, “Integrating In Silico and In Vitro Analysis of Peptide Binding Affinity to HLA-Cw*0102: A Bioinformatic Approach to the Prediction of New Epitopes” (PLoS ONE, 2009) come the findings set out here.

Like-named read-outs stand apart in the source and are kept apart here. No end group written: not given here. Bounds are passed on as bounds.

In the test the target is HLA-Cw*0102 (Homo sapiens, UniProt P10321, A176E/A330V/A35S/A97T/C350S/D114A/D33F/L171W/L180R/L218V/M285V/M309V/M331V/P208H/Q277E/Q291P/R121W/R243W/R30K/S123C/S140Y/S297R/T329A/T363A/V272M/V319A). Kind of test: FACS-based MHC stabilisation assay (peptide binding, T2 cells).
[1] abbreviates: Table 3 newly-designed peptides, T2 cells, peptide 200-0.04 µM, 16 h 37°C, mAb VP6G3, flow cytometry, read-out: pBL50 (exp) (converted).
[2] abbreviates: Table 4 HIV-1 peptides, T2 cells, peptide 200-0.04 µM, 16 h 37°C, mAb VP6G3, flow cytometry, read-out: pBL50 (exp) (converted).

On to `CC(C)[C@H](NC(=O)[C@H](C)N)C(=O)N[C@@H](CC(=O)O)C(=O)N[C@@H](C)C(=O)N[C@@H](CC(=O)O)C(=O)N[C@@H](CC(=O)O)C(=O)N[C@@H](CO)C(=O)N[C@@H](Cc1c[nH]cn1)C(=O)N[C@@H](Cc1ccccc1)C(=O)O` [A V D A D D S H F], for which the EC50 was > 1000 µM. `CC(C)C[C@H](NC(=O)[C@H](C)NC(=O)[C@@H]1CCCN1C(=O)[C@H](Cc1ccc(O)cc1)NC(=O)[C@H](CC(N)=O)NC(=O)CNC(=O)[C@@H]1CCCN1C(=O)[C@H](C)NC(=O)[C@@H](N)Cc1ccccc1)C(=O)O` [F A P G N Y P A L] had an EC50 (pBL50(exp)) of 0.189 µM. On the same count and under the same terms, the figure for `CC[C@H](C)[C@H](N)C(=O)N[C@@H](CC(C)C)C(=O)N[C@@H](CCCCN)C(=O)N[C@@H](CCC(=O)O)C(=O)N1CCC[C@H]1C(=O)N[C@H](C(=O)N[C@@H](Cc1cnc[nH]1)C(=O)NCC(=O)N[C@H](C(=O)O)C(C)C)C(C)C` [I L K E P V H G V] is > 1000 µM; for `CSCC[C@H](NC(=O)[C@H](C)NC(=O)[C@H](CCC(N)=O)NC(=O)[C@H](CO)NC(=O)[C@@H]1CCCN1C(=O)[C@@H](N)CC(C)C)C(=O)N[C@@H](CC(=O)O)C(=O)N[C@@H](CC(=O)O)C(=O)N[C@@H](CC(C)C)C(=O)O` [L P S Q A M D D L] it is > 1000 µM. For the setting “pBL50(exp)”, AAPAYSRAL [A A P A Y S R A L] showed an EC50 of 1.77 µM. As to ACPERIITL, under setting [1], the EC50 was 0.185 µM. ADAEKPFYV [A D A E K P F Y V]: the EC50 (pBL50(exp)) was > 1000 µM. Turning to ADDSHFVSI [A D D S H F V S I], the EC50 is > 1000 µM. Consider AQPQTTTPL [A Q P Q T T T P L], for which the EC50 (pBL50(exp)) is 0.122 µM. Turning to ATSPIVPSL [A T S P I V P S L], the EC50 is 4.15 µM.

Consider CAPAGFAIL, for which the EC50 under setting [2] was 0.00987 µM. CAPREPHVV showed an EC50 (pBL50(exp)) of 0.38 µM. CMPDWLDRL: the EC50 (pBL50(exp)) was 0.331 µM. In the case of DADDSHFVS [D A D D S H F V S], the EC50 was > 1000 µM. DLLTSPDVG [D L L T S P D V G]: for the setting “pBL50(exp)”, the EC50 was > 1000 µM. On to EAPMWDHWL, for which the EC50 (pBL50(exp)) was 0.49 µM. As to ECPQGITPV, for the setting “pBL50(exp)”, the EC50 was 0.109 µM. In turn, EFPWVFIEL had an EC50 (pBL50(exp)) of 0.355 µM. Regarding ELIRTVRLI, the EC50 is > 1000 µM. For the compound ELQAIYLAL [ELQAIYLAL], under setting [2], the EC50 is 1.25 µM. Turning to EQFGNKTIV, the EC50 was > 1000 µM. Compound EQPERYESV gave an EC50 (pBL50(exp)) of 0.132 µM. Still for that read-out and setting: the figure for FAPYNKPSL [F A P Y N K P S L] is 0.611 µM; for FMPIMKNEV it is 0.676 µM. Regarding FPISPIETV, the EC50 was > 1000 µM.

For the compound FQSSMTKIL, the EC50 under setting [2] was 0.701 µM. GADAEKPFY [G A D A E K P F Y]: the EC50 (pBL50(exp)) is > 1000 µM.

For GIPEPAHAY [G I P E P A H A Y], the EC50 (pBL50(exp)) is > 1000 µM. On to HLPETKFSE [H L P E T K F S E], for which, for the setting “pBL50(exp)”, the EC50 was > 1000 µM. In the case of HMPDVGCIL, for the setting “pBL50(exp)”, the EC50 is 0.178 µM. As for HNPGIATPV, for the setting “pBL50(exp)”, the EC50 is 0.661 µM. As to “I L S P L T K G I: initial-set nonamer, Table 1 No. 13”, the “pBL50(exp)” value was 3.061.

The compound ILRRPTSPV [I L R R P T S P V] showed an EC50 of 7.96 µM. With ILSPRKESV [I L S P R K E S V], the EC50 (pBL50(exp)) is 17.2 µM. Where the note is “pBL50(exp)”, ILSPRSESV [I L S P R S E S V] showed an EC50 of 2.62 µM. On to ILSPRSKES [I L S P R S K E S], for which, for the setting “pBL50(exp)”, the EC50 is 292 µM. Regarding ILSPSKESV [I L S P S K E S V], the EC50 (pBL50(exp)) was 11.4 µM. Take ILSPSKESV [peptide 17]: the EC50 (pBL50 / binder class as quoted in text) is 1 to 31.6 µM. With ILSRSKESV [I L S R S K E S V], the “pBL50 / binder class as quoted in text” value is on record as “non-binder”. Also, the EC50 (pBL50(exp)) is > 1000 µM. With IPEPAHAYA [I P E P A H A Y A], under “pBL50(exp)”, the EC50 was > 1000 µM. As to ITPTGTHPL [I T P T G T H P L], the EC50 (pBL50(exp)) was 0.283 µM. For IVIWGKTPK, the EC50 is > 1000 µM. IVRMYSPTS: the EC50 is > 1000 µM.

In the case of IVTRIVELL, the EC50 under setting [2] is 1.12 µM. Turning to KATSPIVPS [K A T S P I V P S], the EC50 is > 1000 µM.

For the compound KSPLDIVNL, under “pBL50(exp)”, the EC50 was 1.91 µM. As to LGPEKLQYL, the EC50 (pBL50(exp)) is 0.151 µM. In the case of LITPKKIKP, the EC50 is > 1000 µM. As to LLKLASPEL [L L K L A S P E L], the EC50 (pBL50(exp)) was > 1000 µM.

In the case of LLRWGFTTP, under setting [2], the EC50 is 2.05 µM. Where the note is “pBL50(exp)”, LLTSPDVGL [L L T S P D V G L] had an EC50 of 11.7 µM.

The compound LPETKFSEL [L P E T K F S E L] showed an EC50 (pBL50(exp)) of 6.37 µM.

Consider LQILAIVAL [LQILAIVAL], for which, under setting [2], the EC50 is 0.766 µM.

The compound LSPLTKGIL [L S P L T K G I L] showed an EC50 of 3.79 µM. In the case of LSPPKKKDL [L S P P K K K D L], the EC50 (pBL50(exp)) was > 1000 µM. LSPRSKESV [L S P R S K E S V] showed an EC50 (pBL50(exp)) of 0.91 µM. As to LTEEKIKAL [LTEEKIKAL], under setting [2], the EC50 is 5.19 µM. Where the note is “pBL50(exp)”, LTSPDVGLL [L T S P D V G L L] had an EC50 of 27.4 µM. Turning to LVSAGIRKV, the EC50 is > 1000 µM. As to MQPSRGKTL, the EC50 (pBL50(exp)) is 0.17 µM. The compound NAPERIITL had an EC50 (pBL50(exp)) of 0.00314 µM. For the setting “pBL50(exp)”, NAPWAVTSL [N A P W A V T S L] showed an EC50 of 0.142 µM. NCAERIITL showed an EC50 (pBL50(exp)) of 0.434 µM. For NCPARIITL, the EC50 (pBL50(exp)) was 0.114 µM. With NCPEAIITL, the EC50 (pBL50(exp)) was 0.193 µM. Still for that read-out and setting: the figure for NCPEGYTSL is 0.0724 µM.

On to NCPERAITL, for which, under “pBL50(exp)”, the EC50 was 0.244 µM. Consider NCPERIATL, for which the EC50 was 0.201 µM.

Regarding NCPERIIAL [NCPERIIAL], the EC50 (pBL50(exp)) was 0.141 µM.

As for NCPERIITA, under setting [1], the EC50 was 0.257 µM. With NCPERIITL, where the note is “pBL50(exp)”, the EC50 was 0.0634 µM. Still for that read-out and setting: the value for NEPQRIEPL was 0.0962 µM. As for NSTWSTEGS, the EC50 is > 1000 µM. NYTSLIHSL: the EC50 was > 1000 µM. For the compound PLPSQAMDD [P L P S Q A M D D], the EC50 (pBL50(exp)) is > 1000 µM. PLSPPKKKD [P L S P P K K K D] gave an EC50 (pBL50(exp)) of 10.1 µM.

For PQSQGVVES, the EC50 is > 1000 µM. Take PVPLQLPPL: the EC50 was 3.16 µM. In the case of QYPKGDAWV, the EC50 (pBL50(exp)) was > 1000 µM. Turning to RVRQGYSPL, the EC50 under setting [2] is 0.0866 µM. As for SLEECDSEL [S L E E C D S E L], the EC50 was 375 µM.

For the setting “pBL50(exp)”, SWPMQFDAL [SWPMQFDAL] showed an EC50 of 0.269 µM.

Turning to TDPWFHRSL, the EC50 (pBL50(exp)) was 0.339 µM. In turn, VAPQLTFGL gave an EC50 (pBL50(exp)) of 0.0162 µM. Take VAPWNSLSL [V A P W N S L S L]: under “pBL50(exp)”, the EC50 is 0.703 µM. Consider VDADDSHFV [V D A D D S H F V], for which the EC50 is > 1000 µM. Turning to VIPMFSALS [VIPMFSALS], the EC50 is 2.45 µM.

In turn, VRPMRQWPL showed an EC50 (pBL50(exp)) of 3.8 µM. Consider VVPRRKAKI, for which the EC50 was > 1000 µM.

For the compound WAPHTDTSL, the EC50 (pBL50(exp)) is 0.0126 µM. Consider WGPGIIWAL [WGPGIIWAL], for which the EC50 (pBL50(exp)) was 3.63 µM. Still for that read-out and setting: the value for WRPDVNMQL was 2.88 µM; that for YAQPQTTTP [Y A Q P Q T T T P] was 5.96 µM. The compound YMPTASCDL showed an EC50 (pBL50(exp)) of 0.0129 µM. Still for that read-out and setting: the figure for YMTPSSRPL [Y M T P S S R P L] is > 1000 µM.
